Measurements from ChEMBL document CHEMBL1142595, “Spirolides isolated from Danish strains of the toxigenic dinoflagellate Alexandrium ostenfeldii” (J Nat Prod, 2006).

Test system: Mus musculus
Assay: Toxicity in ip dosed mouse
Format: organism-based
Conditions: in vivo

C=C1CCCC2=NCC(C)C(C)CC23CCC(C2C=C(C)C(=O)O2)=C(C)C3/C=C(\C)C(O)CC2CCC3(CCC4(OC(CCC4O)C1)O3)O2 (stereo unspecified)
MLD: 0.03 mg/kg
